ChEMBL document CHEMBL1201862, “PubChem BioAssay data set” (2004)
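Interpolation was linear, between the two tested concentrations surrounding the appropriate level; five concentrations were tested over 48 hours in 96-well plates. GI50 is the concentration that inhibits growth by half.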 Active and inactive are the calls of the source. Cut-off read from the data, not from the text of the source: active = GI50 up to about 1.1 µM and inactive = higher.

What was measured:
Assay in all cases: NCI anticancer screen, dose series, 48 h
OVCAR-3 = tested on: OVCAR-3
MCF7 = tested on: MCF7
CCRF-CEM = tested on: CCRF-CEM
OVCAR-4 = tested on: OVCAR-4
SNB-75 = tested on: SNB-75
HOP-92 = tested on: HOP-92
SW-620 = tested on: SW-620
SN12C = tested on: SN12C
SK-MEL-28 = tested on: SK-MEL-28
MDA-N = tested on: MDA-N
MDA-MB-231 = tested on: MDA-MB-231
DU-145 = tested on: DU-145
NCI/ADR-RES = tested on: NCI/ADR-RES
SK-OV-3 = tested on: SK-OV-3
HCT-15 = tested on: HCT-15
786-0 = tested on: 786-0
SF-539 = tested on: SF-539
SNB-19 = tested on: SNB-19
T47D = tested on: T47D
LOX IMVI = tested on: LOX IMVI

FC(F)(F)c1cc(Cl)cnc1N/N=C(/c1ccccc1)c1ccccn1
GI50 (OVCAR-3): 1.82 µM (inactive) | GI50 (MCF7): 3.13 µM (inactive) | GI50 (CCRF-CEM): 0.492 µM (active) | GI50 (OVCAR-4): 6.67 µM (inactive) | GI50 (SNB-75): 0.298 µM (active) | GI50 (HOP-92): 1.81 µM (inactive) | GI50 (SW-620): 3.85 µM (inactive) | GI50 (SN12C): 5.36 µM (inactive) | GI50 (SK-MEL-28): 6.92 µM (inactive) | GI50 (MDA-N): 17.8 µM (inactive) | GI50 (MDA-MB-231): 4.09 µM (inactive) | GI50 (DU-145): 4.46 µM (inactive) | GI50 (NCI/ADR-RES): 2.34 µM (inactive) | GI50 (SK-OV-3): 2.49 µM (inactive) | GI50 (HCT-15): 0.74 µM | GI50 (786-0): 2.84 µM (inactive) | GI50 (SF-539): 3.66 µM (inactive) | GI50 (SNB-19): 4.67 µM (inactive)

CC1=CCC[C@@](C)(O)[C@@H]2C[C@H]3C(CSc4ccccc4)C(=O)O[C@H]3[C@@H](O2)[C@H](C)CCC1 (some centres not stated)
GI50 (OVCAR-3): 13 µM (inactive) | GI50 (MCF7): 13.8 µM (inactive) | GI50 (CCRF-CEM): > 100 µM (inactive) | GI50 (T47D): 22.2 µM (inactive) | GI50 (LOX IMVI): 15.9 µM (inactive) | GI50 (OVCAR-4): 19.8 µM (inactive) | GI50 (SNB-75): 13.6 µM (inactive) | GI50 (HOP-92): 26.9 µM (inactive) | GI50 (SW-620): 27 µM (inactive) | GI50 (SN12C): 38.2 µM (inactive) | GI50 (SK-MEL-28): 21 µM (inactive) | GI50 (MDA-N): 24.5 µM (inactive) | GI50 (MDA-MB-231): 28.1 µM (inactive) | GI50 (DU-145): 25.6 µM (inactive) | GI50 (SK-OV-3): 21.5 µM (inactive) | GI50 (HCT-15): 19 µM | GI50 (786-0): 20.3 µM (inactive) | GI50 (SF-539): 16.4 µM (inactive) | GI50 (SNB-19): 13.2 µM (inactive)

Nc1nc(Cc2ccccc2)nc(Cc2ccccc2)c1-c1ccccc1
GI50 (OVCAR-3): 14.7 µM (inactive) | GI50 (T47D): 36.8 µM (inactive) | GI50 (LOX IMVI): 21.3 µM (inactive) | GI50 (OVCAR-4): 38.5 µM (inactive) | GI50 (HOP-92): 11.5 µM (inactive) | GI50 (SW-620): 33.9 µM (inactive) | GI50 (SN12C): 28.2 µM (inactive) | GI50 (SK-MEL-28): 48.1 µM (inactive) | GI50 (MDA-N): 16.1 µM (inactive) | GI50 (MDA-MB-231): 18.7 µM (inactive) | GI50 (DU-145): 22.8 µM (inactive) | GI50 (NCI/ADR-RES): 16.7 µM (inactive) | GI50 (HCT-15): 21.5 µM | GI50 (786-0): 22.9 µM (inactive) | GI50 (SNB-19): 75.7 µM (inactive)

O=C(O)c1nc2cc(C(F)(F)F)ccc2nc1Nc1ccc(Cl)c(Cl)c1
GI50 (OVCAR-3): 13.5 µM (inactive) | GI50 (MCF7): 23.8 µM (inactive) | GI50 (CCRF-CEM): > 10 µM (inactive) | GI50 (T47D): 14.1 µM (inactive) | GI50 (LOX IMVI): 17.3 µM (inactive) | GI50 (OVCAR-4): 21.2 µM (inactive) | GI50 (SNB-75): 20.5 µM (inactive) | GI50 (HOP-92): 11 µM (inactive) | GI50 (SW-620): 10.8 µM (inactive) | GI50 (MDA-N): 14 µM (inactive) | GI50 (MDA-MB-231): 20.7 µM (inactive) | GI50 (NCI/ADR-RES): 10.5 µM (inactive) | GI50 (SK-OV-3): 16.7 µM (inactive) | GI50 (HCT-15): 12.3 µM | GI50 (786-0): 15.9 µM (inactive) | GI50 (SF-539): 11.4 µM (inactive) | GI50 (SNB-19): 8.95 µM (inactive)

CN(C)CCCN1c2ccc3ccccc3c2Sc2cccc(Cl)c21
GI50 (OVCAR-3): 2.89 µM (inactive) | GI50 (CCRF-CEM): 1.52 µM (inactive) | GI50 (T47D): 2.46 µM (inactive) | GI50 (LOX IMVI): 1.97 µM (inactive) | GI50 (OVCAR-4): 4.4 µM (inactive) | GI50 (SNB-75): 3.6 µM (inactive) | GI50 (HOP-92): 1.51 µM (inactive) | GI50 (SW-620): 2.04 µM (inactive) | GI50 (SN12C): 6.19 µM (inactive) | GI50 (SK-MEL-28): 2.18 µM (inactive) | GI50 (MDA-N): 2.38 µM (inactive) | GI50 (MDA-MB-231): 2.32 µM (inactive) | GI50 (DU-145): 4.54 µM (inactive) | GI50 (NCI/ADR-RES): 5.56 µM (inactive) | GI50 (SK-OV-3): 11.4 µM (inactive) | GI50 (HCT-15): 4.33 µM | GI50 (786-0): 2.99 µM (inactive) | GI50 (SF-539): 4.32 µM (inactive) | GI50 (SNB-19): 5.87 µM (inactive)

C=CC[C@H](O)[C@@](NC(=O)OCc1ccccc1)(Sc1ccc(C)cc1)C(F)(F)F
GI50 (OVCAR-3): 21.8 µM (inactive) | GI50 (MCF7): 23.5 µM (inactive) | GI50 (LOX IMVI): 4.44 µM (inactive) | GI50 (OVCAR-4): 28.2 µM (inactive) | GI50 (HOP-92): 38.6 µM (inactive) | GI50 (SW-620): 32.1 µM (inactive) | GI50 (SN12C): 17.3 µM (inactive) | GI50 (SK-MEL-28): 43.7 µM (inactive) | GI50 (MDA-N): 19.2 µM (inactive) | GI50 (MDA-MB-231): 24.8 µM (inactive) | GI50 (DU-145): 35.7 µM (inactive) | GI50 (NCI/ADR-RES): 31.1 µM (inactive) | GI50 (HCT-15): 24.9 µM | GI50 (786-0): 16.9 µM (inactive) | GI50 (SF-539): 14.6 µM (inactive) | GI50 (SNB-19): 32.6 µM (inactive)

CN1CCC(O)(C(C)(C)C)CC1
GI50 (OVCAR-3): > 100 µM (inactive) | GI50 (MCF7): > 100 µM (inactive) | GI50 (CCRF-CEM): > 100 µM (inactive) | GI50 (T47D): > 100 µM (inactive) | GI50 (LOX IMVI): > 100 µM (inactive) | GI50 (OVCAR-4): > 100 µM (inactive) | GI50 (SNB-75): > 100 µM (inactive) | GI50 (SW-620): > 100 µM (inactive) | GI50 (SN12C): > 100 µM (inactive) | GI50 (SK-MEL-28): > 100 µM (inactive) | GI50 (MDA-N): > 100 µM (inactive) | GI50 (MDA-MB-231): > 100 µM (inactive) | GI50 (DU-145): > 100 µM (inactive) | GI50 (NCI/ADR-RES): > 100 µM (inactive) | GI50 (SK-OV-3): > 100 µM (inactive) | GI50 (HCT-15): > 100 µM | GI50 (786-0): > 100 µM (inactive) | GI50 (SNB-19): > 100 µM (inactive)

C/C=C\C(CC(=O)NCCc1cn(C(=O)OCc2ccccc2)c2ccccc12)CC(=O)OC (configuration not stated)
GI50 (OVCAR-3): 69.7 µM (inactive) | GI50 (MCF7): 46.6 µM (inactive) | GI50 (OVCAR-4): 35.9 µM (inactive) | GI50 (SNB-75): > 100 µM (inactive) | GI50 (HOP-92): 69 µM (inactive) | GI50 (SW-620): > 100 µM (inactive) | GI50 (SK-MEL-28): > 100 µM (inactive) | GI50 (MDA-N): 79.1 µM (inactive) | GI50 (MDA-MB-231): > 100 µM (inactive) | GI50 (DU-145): > 100 µM (inactive) | GI50 (NCI/ADR-RES): 41.8 µM (inactive) | GI50 (SK-OV-3): > 100 µM (inactive) | GI50 (HCT-15): > 100 µM | GI50 (786-0): > 100 µM (inactive) | GI50 (SNB-19): 63.1 µM (inactive)
